Assay results from patent US10696707B2, “Polyene macrolide derivative” (Shionogi & Co., Ltd., priority 2014, dated 2020).
≈ marks a conversion by molar mass, not a printed value.

Legend:
Format in all cases: cell-based
C. albicans ATCC90028 = test: Antifungal activity test, MIC by broth microdilution (CLSI M27-A3); conditions: C. albicans ATCC90028; broth microdilution, 35° C., 24-48 hours, 100% inhibition
Experimental: (§1) The Minimum Inhibitory Concentration (MIC) values of the present compound against yeast and filamentous fungi were determined by broth microdilution assay according to the Clinical Laboratory Standards Institute (CLSI) guidelines outlined in documents M27-A3 and M38-A2. The medium used in the assay consisted of RPMI1640 (with glutamine, without bicarbonate) with 2% glucose and 0.165 mol/L morpholinepropanesulfonic acid (MOPS) with pH adjusted to 7.0 using 1 mol/L sodium hydroxide. The present compound was dissolved in dimethyl sulfoxide (DMSO). A series of two-fold dilutions were prepared in DMSO, and then 2 μL of the diluted compound was added to each well in 96-well sterile plates. Each inoculum was prepared by diluting a suspension of Candida spp. or a conidia suspension of Aspergillus spp. suspended in sterile saline solution, and then 200 μL was added to each well to a predetermined concentration using RPMI/MOPS (final concentration for each solution: approximately 1×10^3 cells/mL and approximately 1×10^4 CFU/mL). Plates of Candida spp. and Aspergillus spp. were incubated at 35° C. for 24-48 hours. The MIC was defined as the lowest concentration giving 100% inhibition compared to the growth control.

A. flavus ATCC204304 = test: Antifungal activity test, MIC by broth microdilution (CLSI M38-A2); conditions: A. flavus ATCC204304; broth microdilution, 35° C., 24-48 hours, 100% inhibition
Experimental: as §1

A. fumigatus ATCC204305 = test: as above; conditions: A. fumigatus ATCC204305; broth microdilution, 35° C., 24-48 hours, 100% inhibition
Experimental: as §1

SMILES	MIC (C. albicans ATCC90028)	MIC (A. flavus ATCC204304)	MIC (A. fumigatus ATCC204305)
C[C@@H]1[C@H](O)[C@@H](C)/C=C/C=C/C=C/C=C/C=C/C=C/C=C/[C@H](O[C@@H]2O[C@H](C)[C@@H](O)[C@H](N)[C@@H]2O)C[C@@H]2O[C@](O)(C[C@@H](O)C[C@@H](O)[C@H](O)CC[C@@H](O)C[C@@H](O)CC(=O)O[C@H]1C)C[C@H](O)[C@H]2NC(=O)NCC1CN(CCO)C1 [I-158]	0.25 µg/mL (≈ 0.238 µM)	1 µg/mL (≈ 0.951 µM)	1 µg/mL (≈ 0.951 µM)
C[C@@H]1[C@H](O)[C@@H](C)/C=C/C=C/C=C/C=C/C=C/C=C/C=C/[C@H](O[C@@H]2O[C@H](C)[C@@H](O)[C@H](N)[C@@H]2O)C[C@@H]2O[C@](O)(C[C@@H](O)C[C@@H](O)[C@H](O)CC[C@@H](O)C[C@@H](O)CC(=O)O[C@H]1C)C[C@H](O)[C@H]2NC(=O)NCC1CN(C)C1 [I-159]	0.25 µg/mL (≈ 0.245 µM)	0.5 µg/mL (≈ 0.49 µM)	1 µg/mL (≈ 0.979 µM)
C[C@@H]1[C@H](O)[C@@H](C)/C=C/C=C/C=C/C=C/C=C/C=C/C=C/[C@H](O[C@@H]2O[C@H](C)[C@@H](O)[C@H](N)[C@@H]2O)C[C@@H]2O[C@](O)(C[C@@H](O)C[C@@H](O)[C@H](O)CC[C@@H](O)C[C@@H](O)CC(=O)O[C@H]1C)C[C@H](O)[C@H]2NC(=O)NC[C@H](N)CO [I-162]	0.25 µg/mL (≈ 0.247 µM)	1 µg/mL (≈ 0.989 µM)	1 µg/mL (≈ 0.989 µM)
CC1C=CC=CC=CC=CC=CC=CC=CC(OC2OC(C)C(O)C(N)C2O)CC2OC(O)(CC(O)CC(O)C(O)CCC(O)CC(O)CC(=O)OC(C)C(C)C1O)CC(O)C2NC(=O)NCC(N)CCO (stereo not drawn) [I-163]	0.25 µg/mL (≈ 0.244 µM)	1 µg/mL (≈ 0.975 µM)	1 µg/mL (≈ 0.975 µM)
C[C@@H]1[C@H](O)[C@@H](C)/C=C/C=C/C=C/C=C/C=C/C=C/C=C/[C@H](O[C@@H]2O[C@H](C)[C@@H](O)[C@H](N)[C@@H]2O)C[C@@H]2O[C@](O)(C[C@@H](O)C[C@@H](O)[C@H](O)CC[C@@H](O)C[C@@H](O)CC(=O)O[C@H]1C)C[C@H](O)[C@H]2NC(=O)NC1CN(CCO)C1 [I-165]	0.25 µg/mL (≈ 0.241 µM)	1 µg/mL (≈ 0.964 µM)	1 µg/mL (≈ 0.964 µM)
C[C@@H]1[C@H](O)[C@@H](C)/C=C/C=C/C=C/C=C/C=C/C=C/C=C/[C@H](O[C@@H]2O[C@H](C)[C@@H](O)[C@H](N)[C@@H]2O)C[C@@H]2O[C@](O)(C[C@@H](O)C[C@@H](O)[C@H](O)CC[C@@H](O)C[C@@H](O)CC(=O)O[C@H]1C)C[C@H](O)[C@H]2NC(=O)N1CC(O)C1 [I-166]	0.25 µg/mL (≈ 0.251 µM)	0.5 µg/mL (≈ 0.503 µM)	1 µg/mL (≈ 1.01 µM)
C[C@@H]1[C@H](O)[C@@H](C)/C=C/C=C/C=C/C=C/C=C/C=C/C=C/[C@H](O[C@@H]2O[C@H](C)[C@@H](O)[C@H](N)[C@@H]2O)C[C@@H]2O[C@](O)(C[C@@H](O)C[C@@H](O)[C@H](O)CC[C@@H](O)C[C@@H](O)CC(=O)O[C@H]1C)C[C@H](O)[C@H]2NC(=O)NC(CN)CO (stereo partly drawn) [I-169]	0.25 µg/mL (≈ 0.247 µM)	1 µg/mL (≈ 0.989 µM)	1 µg/mL (≈ 0.989 µM)
C[C@@H]1[C@H](O)[C@@H](C)/C=C/C=C/C=C/C=C/C=C/C=C/C=C/[C@H](O[C@@H]2O[C@H](C)[C@@H](O)[C@H](N)[C@@H]2O)C[C@@H]2O[C@](O)(C[C@@H](O)C[C@@H](O)[C@H](O)CC[C@@H](O)C[C@@H](O)CC(=O)O[C@H]1C)C[C@H](O)[C@H]2NC(=O)N1CC(N(C)C)C1 [I-189]	0.25 µg/mL (≈ 0.245 µM)	0.5 µg/mL (≈ 0.49 µM)	0.5 µg/mL (≈ 0.49 µM)
C[C@@H]1[C@H](O)[C@@H](C)/C=C/C=C/C=C/C=C/C=C/C=C/C=C/[C@H](O[C@@H]2O[C@H](C)[C@@H](O)[C@H](N)[C@@H]2O)C[C@@H]2O[C@](O)(C[C@@H](O)C[C@@H](O)[C@H](O)CC[C@@H](O)C[C@@H](O)CC(=O)O[C@H]1C)C[C@H](O)[C@H]2NC(=O)NCC1(CO)COC1 [I-193]	0.25 µg/mL (≈ 0.241 µM)	0.5 µg/mL (≈ 0.482 µM)	1 µg/mL (≈ 0.963 µM)
